Test results reported in ChEMBL document CHEMBL4342498, “Design and Discovery of an Orally Efficacious Spiroindolinone-Based Tankyrase Inhibitor for the Treatment of Colon Cancer” (J Med Chem, 2020).
One block for each compound: values may come before it. Calls of active or inactive are those of the source. No cut-off for these calls is given here.

Key:
[1] = tested on: COLO 320DM; test: Antitumor activity against human COLO320DM cells xenografted in Prkdc-NOD-SCID CB17 mouse assessed as tumor growth inhibition; type: functional
[2] = tested on: COLO 320DM; test: Antiproliferative activity against human COLO320DM cells assessed inhibition of cell growth measured after 5 days by MTT assay; type: functional; conditions: 120 h
[3] = Plasma concentration in ICR mouse at 20 mg/kg, po measured after 4 hrs; type: ADME, organism-based
[4] = Toxicity in human COLO320DM cells xenografted Prkdc-NOD-SCID CB17 mouse assessed as epithelial degeneration at 50 mg/kg, ip administered twice daily for 5 days followed by 2 days interval for 2 cycles; conditions: in vivo
[5] = tested on: Mus musculus; test: (§1) In vivo inhibition of TNSK/TNSK2-medited WNT/beta-catenin signaling in human COLO320DM cells xenografted Prkdc-NOD-SCID CB17 mouse assessed as reduction in total beta catenin expression in tumor nuclear extract at 10 to 20 mg/kg, po administered twice daily for 5 days followed by 2 days interval for 2 cycles measured 4 hrs post-last dose by Western blot analysis; type: functional, organism-based
[6] = tested on: Mus musculus; test: as §1, with “as upregulation of AXIN2” for “as reduction in total beta catenin”, “tumor cytosolic” for “tumor nuclear”, “mg/kg, ip” for “mg/kg, po”; type: functional, organism-based
[7] = tested on: COLO 320DM; test: Antitumor activity against human COLO320DM cells xenografted in Prkdc-NOD-SCID CB17 mouse assessed as tumor growth inhibition at 20 mg/kg, ip administered twice daily for 5 days followed by 2 days interval for 2 cycles relative to control; type: functional; conditions: read-out: TGI
[8] = Toxicity in human COLO320DM cells xenografted Prkdc-NOD-SCID CB17 mouse assessed as reduction in appetite at 50 mg/kg, ip administered twice daily for 5 days followed by 2 days interval for 2 cycles; conditions: in vivo
[9] = tested on: COLO 320DM; test: Antitumor activity against human COLO320DM cells xenografted in Prkdc-NOD-SCID CB17 mouse assessed as tumor growth inhibition at 20 mg/kg, po administered twice daily for 5 days followed by 2 days interval for 2 cycles relative to control; type: functional; conditions: read-out: TGI
[10] = Plasma concentration in human COLO320DM cells xenografted Prkdc-NOD-SCID CB17 mouse at 20 mg/kg, po administered twice daily for 5 days followed by 2 days interval for 2 cycles measured 4 hrs post-last dose; type: ADME, organism-based
[11] = tested on: COLO 320DM; test: Antitumor activity against human COLO320DM cells xenografted in Prkdc-NOD-SCID CB17 mouse assessed as tumor growth inhibition at 10 mg/kg, po administered twice daily for 5 days followed by 2 days interval for 2 cycles relative to control; type: functional; conditions: read-out: TGI
[12] = Oral bioavailability in Sprague-Dawley rat at 3 mg/kg; type: ADME, organism-based; conditions: in vivo
[13] = Tmax in ICR mouse at 20 mg/kg, ip; type: ADME, organism-based; conditions: in vivo
[14] = Toxicity in human COLO320DM cells xenografted Prkdc-NOD-SCID CB17 mouse assessed as loss of body weight at 50 mg/kg, ip administered twice daily for 5 days followed by 2 days interval for 2 cycles; conditions: in vivo
[15] = target: T1, Cytochrome P450 2B6 (Homo sapiens, UniProt P20813); test: Inhibition of CYP2B6 in human liver microsomes using bupropion as substrate preincubated for 5 mins followed by NADPH addition and measured for 10 to 30 mins by LC-MS/MS analysis; type: ADME
T1 sequence (P20813 whole entry): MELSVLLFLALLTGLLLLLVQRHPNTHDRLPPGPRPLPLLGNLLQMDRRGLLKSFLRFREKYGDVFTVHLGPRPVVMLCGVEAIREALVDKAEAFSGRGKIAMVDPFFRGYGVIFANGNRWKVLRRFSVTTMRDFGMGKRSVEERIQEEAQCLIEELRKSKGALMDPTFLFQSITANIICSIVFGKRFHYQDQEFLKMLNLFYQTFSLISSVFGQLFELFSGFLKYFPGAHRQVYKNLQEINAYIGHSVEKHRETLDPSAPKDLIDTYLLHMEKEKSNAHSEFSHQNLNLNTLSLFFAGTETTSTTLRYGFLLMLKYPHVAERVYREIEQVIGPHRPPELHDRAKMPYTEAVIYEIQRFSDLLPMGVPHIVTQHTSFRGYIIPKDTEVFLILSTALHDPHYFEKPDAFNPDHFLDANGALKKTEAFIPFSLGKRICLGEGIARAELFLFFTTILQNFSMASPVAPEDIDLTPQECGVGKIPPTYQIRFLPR

[16] = Toxicity in human COLO320DM cells xenografted Prkdc-NOD-SCID CB17 mouse assessed as reduction in crypt proliferation at 50 mg/kg, ip administered twice daily for 5 days followed by 2 days interval for 2 cycles; conditions: in vivo
[17] = Half life in ICR mouse at 20 mg/kg, ip; type: ADME, organism-based; conditions: in vivo
[18] = AUC (infinity) in ICR mouse at 20 mg/kg, ip; type: ADME, organism-based; design: dose 20 mg/kg, route intraperitoneal, time infinity; conditions: in vivo
[19] = tested on: Mus musculus; test: as §1, with “upregulation of AXIN2” for “reduction in total beta catenin”, “cytosolic” for “nuclear”; type: functional, organism-based
[20] = target: Tankyrase 1/2 (Homo sapiens) (UniProt Q9H2K2+O95271); test: Inhibition of TNKS/TNKS2-mediated WNT/beta-catenin signaling pathway in human COLO320DM cells assessed as reduction in active beta-catenin expression by measuring beta-catenin level at 0.1 uM measured after 16 hrs by Western blot analysis relative to GADPH; type: cell-based
[21] = Cmax in Sprague-Dawley rat at 3 mg/kg, po; type: ADME, organism-based; design: dose 3 mg/kg, route oral; conditions: in vivo
[22] = target: Cytochrome P450 2D6 (Homo sapiens, UniProt P10635); test: Inhibition of CYP2D6 in human liver microsomes using bufuralol as substrate preincubated for 5 mins followed by NADPH addition and measured for 10 to 30 mins by LC-MS/MS analysis; type: ADME
[23] = Toxicity in human COLO320DM cells xenografted Prkdc-NOD-SCID CB17 mouse assessed as behavioral changes at 50 mg/kg, ip administered twice daily for 5 days followed by 2 days interval for 2 cycles; conditions: in vivo
[24] = target: Cytochrome P450 2C9 (Homo sapiens, UniProt P11712); test: Inhibition of CYP2C9 in human liver microsomes using diclofenac as substrate preincubated for 5 mins followed by NADPH addition and measured for 10 to 30 mins by LC-MS/MS analysis; type: ADME
[25] = Dose normalized AUC (infinity) in Sprague-Dawley rat at 1 mg/kg, iv; type: ADME, organism-based; conditions: in vivo
[26] = tested on: Mus musculus; test: as §1, with “mg/kg, ip” for “mg/kg, po”; type: functional, organism-based
[27] = AUC (infinity) in Sprague-Dawley rat at 3 mg/kg, po; type: ADME, organism-based; design: dose 3 mg/kg, time infinity, route oral; conditions: in vivo
[28] = Total clearance in Sprague-Dawley rat at 3 mg/kg, iv; type: ADME, organism-based; conditions: in vivo

Chain of Cytochrome P450 2C9 (P11712 whole entry): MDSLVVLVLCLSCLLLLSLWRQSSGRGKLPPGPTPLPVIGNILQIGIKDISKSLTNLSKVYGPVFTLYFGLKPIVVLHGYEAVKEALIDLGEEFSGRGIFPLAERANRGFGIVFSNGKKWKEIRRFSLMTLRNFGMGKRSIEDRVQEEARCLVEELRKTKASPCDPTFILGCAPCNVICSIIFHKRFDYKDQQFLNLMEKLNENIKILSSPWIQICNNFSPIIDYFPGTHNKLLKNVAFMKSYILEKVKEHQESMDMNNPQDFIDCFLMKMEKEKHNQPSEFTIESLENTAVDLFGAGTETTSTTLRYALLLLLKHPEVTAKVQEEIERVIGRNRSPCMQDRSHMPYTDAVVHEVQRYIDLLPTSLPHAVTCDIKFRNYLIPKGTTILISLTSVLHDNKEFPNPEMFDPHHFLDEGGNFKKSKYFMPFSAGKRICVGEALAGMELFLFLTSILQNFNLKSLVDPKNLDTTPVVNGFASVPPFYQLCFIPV
Chain of Tankyrase 1/2 (Homo sapiens) (O95271 whole entry, looked up): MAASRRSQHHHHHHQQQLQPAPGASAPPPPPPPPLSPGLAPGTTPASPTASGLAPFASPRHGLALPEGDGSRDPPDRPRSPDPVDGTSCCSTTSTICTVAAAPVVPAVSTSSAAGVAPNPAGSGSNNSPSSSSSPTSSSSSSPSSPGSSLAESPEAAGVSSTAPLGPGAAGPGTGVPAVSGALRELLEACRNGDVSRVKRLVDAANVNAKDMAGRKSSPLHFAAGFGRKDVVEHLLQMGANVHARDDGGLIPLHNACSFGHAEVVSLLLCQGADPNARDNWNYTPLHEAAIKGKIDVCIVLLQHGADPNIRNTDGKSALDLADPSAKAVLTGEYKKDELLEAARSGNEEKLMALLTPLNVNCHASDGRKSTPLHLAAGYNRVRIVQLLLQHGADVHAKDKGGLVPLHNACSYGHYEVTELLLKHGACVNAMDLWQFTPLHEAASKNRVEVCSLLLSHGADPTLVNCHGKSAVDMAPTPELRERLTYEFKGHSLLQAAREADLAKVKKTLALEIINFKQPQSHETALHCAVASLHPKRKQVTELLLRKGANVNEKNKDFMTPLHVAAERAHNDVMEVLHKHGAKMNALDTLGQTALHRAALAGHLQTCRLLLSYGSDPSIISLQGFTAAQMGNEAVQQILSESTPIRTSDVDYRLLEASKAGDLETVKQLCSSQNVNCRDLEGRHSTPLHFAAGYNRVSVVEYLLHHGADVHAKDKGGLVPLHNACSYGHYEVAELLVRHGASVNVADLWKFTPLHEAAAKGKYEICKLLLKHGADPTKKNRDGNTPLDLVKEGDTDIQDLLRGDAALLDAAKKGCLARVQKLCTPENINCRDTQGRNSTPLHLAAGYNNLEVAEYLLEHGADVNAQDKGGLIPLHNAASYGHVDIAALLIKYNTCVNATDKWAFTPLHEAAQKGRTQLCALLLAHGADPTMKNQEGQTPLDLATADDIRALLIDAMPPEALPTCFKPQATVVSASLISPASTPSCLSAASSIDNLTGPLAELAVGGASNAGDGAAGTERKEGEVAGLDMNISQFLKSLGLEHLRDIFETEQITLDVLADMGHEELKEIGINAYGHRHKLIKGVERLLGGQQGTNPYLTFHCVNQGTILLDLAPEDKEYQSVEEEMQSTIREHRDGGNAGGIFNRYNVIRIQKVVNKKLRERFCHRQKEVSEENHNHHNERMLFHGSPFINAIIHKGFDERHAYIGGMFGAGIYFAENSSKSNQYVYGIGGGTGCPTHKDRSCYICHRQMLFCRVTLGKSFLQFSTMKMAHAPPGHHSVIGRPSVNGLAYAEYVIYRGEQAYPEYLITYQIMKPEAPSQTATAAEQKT
Chain of Tankyrase 1/2 (Homo sapiens) (Q9H2K2 whole entry, looked up): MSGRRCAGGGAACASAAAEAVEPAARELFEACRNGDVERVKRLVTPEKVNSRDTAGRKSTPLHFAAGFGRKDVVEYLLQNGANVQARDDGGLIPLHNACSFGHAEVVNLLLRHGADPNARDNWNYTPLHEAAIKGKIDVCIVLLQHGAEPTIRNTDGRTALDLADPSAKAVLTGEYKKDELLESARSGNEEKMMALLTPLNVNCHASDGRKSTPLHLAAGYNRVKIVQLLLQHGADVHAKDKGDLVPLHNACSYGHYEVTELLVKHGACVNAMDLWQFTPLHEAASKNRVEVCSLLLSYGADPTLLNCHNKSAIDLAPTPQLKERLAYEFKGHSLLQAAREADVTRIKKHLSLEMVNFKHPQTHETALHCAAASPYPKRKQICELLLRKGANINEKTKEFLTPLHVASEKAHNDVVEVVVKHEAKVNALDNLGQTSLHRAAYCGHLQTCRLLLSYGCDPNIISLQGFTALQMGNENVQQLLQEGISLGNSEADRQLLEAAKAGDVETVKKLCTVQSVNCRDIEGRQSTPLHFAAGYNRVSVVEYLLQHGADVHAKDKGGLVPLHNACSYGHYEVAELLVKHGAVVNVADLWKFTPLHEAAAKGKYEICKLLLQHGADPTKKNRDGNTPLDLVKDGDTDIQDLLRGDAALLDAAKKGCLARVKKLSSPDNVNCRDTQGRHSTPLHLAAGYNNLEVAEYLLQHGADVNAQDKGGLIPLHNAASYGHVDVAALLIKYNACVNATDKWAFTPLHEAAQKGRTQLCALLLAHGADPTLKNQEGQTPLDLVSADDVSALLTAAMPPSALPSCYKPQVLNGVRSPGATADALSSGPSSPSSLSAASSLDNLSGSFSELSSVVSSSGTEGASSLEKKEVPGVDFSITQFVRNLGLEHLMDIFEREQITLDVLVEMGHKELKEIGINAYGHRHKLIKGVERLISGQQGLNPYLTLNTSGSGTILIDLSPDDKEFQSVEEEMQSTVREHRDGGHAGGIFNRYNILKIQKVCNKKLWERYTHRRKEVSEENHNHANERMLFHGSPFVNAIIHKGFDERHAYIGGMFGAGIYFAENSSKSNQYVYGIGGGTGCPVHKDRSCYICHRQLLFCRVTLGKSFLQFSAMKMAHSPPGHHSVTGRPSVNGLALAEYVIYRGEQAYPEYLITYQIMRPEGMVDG
Chain of Cytochrome P450 2D6 (P10635 whole entry): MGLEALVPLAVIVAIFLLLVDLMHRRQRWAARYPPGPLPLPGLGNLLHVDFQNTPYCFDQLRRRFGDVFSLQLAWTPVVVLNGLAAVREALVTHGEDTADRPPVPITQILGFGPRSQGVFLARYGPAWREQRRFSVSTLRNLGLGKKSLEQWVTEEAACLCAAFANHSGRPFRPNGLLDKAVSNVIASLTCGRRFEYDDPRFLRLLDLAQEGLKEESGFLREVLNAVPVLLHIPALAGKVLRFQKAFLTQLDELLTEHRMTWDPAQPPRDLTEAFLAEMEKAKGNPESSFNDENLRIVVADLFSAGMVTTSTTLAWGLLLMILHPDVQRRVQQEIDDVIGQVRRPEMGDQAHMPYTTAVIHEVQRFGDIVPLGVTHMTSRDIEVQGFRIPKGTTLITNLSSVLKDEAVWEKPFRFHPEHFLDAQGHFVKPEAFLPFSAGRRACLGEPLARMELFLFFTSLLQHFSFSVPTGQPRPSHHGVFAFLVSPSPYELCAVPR

Structure (SMILES): CN1CCN(c2cc(F)c3c(c2)N(C)C(=O)C32CCN(c3nc4c(c(=O)[nH]3)CCCN4C)CC2)CC1
- TGI [1]: inactive

- GI50 [2]: 0.035 µM
- concentration at 4 h [3]: 26.9 µM
- concentration at 4 h [10]: 23.3 µM
- bioavailability [12]: 100%
- Tmax [13]: 1 h
- IC50 [15]: > 10 µM
- half-life [17]: 2.8 h
- AUC(0-inf) [18]: 266 µM·h
- fold change (FC) [20]: 0.39
- Cmax [21]: 12.7 µM
- IC50 [22]: > 10 µM
- IC50 [24]: > 10 µM
- AUC/dose [25]: 10.49 µmol·h/L
- AUC(0-inf) [27]: 33 µM·h
- clearance [28]: 3.17 mL/min/kg
Structure (SMILES): C[C@@H]1CN(c2cc(F)c3c(c2)N(C)C(=O)C32CCN(c3nc4c(c(=O)[nH]3)CCCN4C)CC2)C[C@H](C)O1
- Activity [4]: Toxic
- inhibition [5]: Active
- inhibition [6]: Active
- inhibition in vivo at 20 mg/kg [7]: 71.1%
- Activity [8]: Toxic
- inhibition in vivo at 20 mg/kg [9]: 52%
- inhibition in vivo at 10 mg/kg [11]: 52.3%
- Activity [14]: Toxic
- Activity [16]: Toxic
- inhibition [19]: Active
- Activity [23]: Toxic
- inhibition [26]: inactive
